Laboratory results published in patent publication US11473151B2, “Diagnostic and therapeutic methods for cancer” (Genentech, Inc., priority 2017, dated 2022).
Entries after “also recorded” stand apart in the source; their conditions may differ.

Tests used:
[1] = system: metastatic urothelial carcinoma (mUC) patients; assay: IMvigor210 single-arm phase II study of atezolizumab: response (RECIST v1.1) and overall survival; format: in vivo, human
Description: Samples for this analysis were collected from IMvigor210, which was a single-arm phase II study investigating atezolizumab (1200 mg every 3 weeks (q3w)) in metastatic urothelial carcinoma (mUC) patients (Clinical Trial Identifier: NCT02108652). The primary endpoint of the trial was to achieve a partial response (PR) rate of over 10% (Response Evaluation Criteria In Solid Tumors (RECIST) v1.1). Patients who had failed previous platinum-based chemotherapy or previously untreated patients who were not eligible for platinum-based chemotherapy were eligible. The primary endpoint was met for both previously treated and untreated populations. It was a requirement for all patients to have tumor tissue taken in the 2 years prior to study entry. The tissues were initially used for PD-L1 analysis (SP142 antibody using the Ventana platform). PD-L1 positivity was defined as more that 5% of cells staining in the immune component of the tumor tissue. Additional tissue was used for exploratory analysis. All patients had measurable disease at baseline facilitating response assessment. RECIST v1.1 was used to assess response to therapy. Cross-sectional imaging was performed every 6 weeks. All patients gave […] for this analysis.
For investigation of the clinical activity of PD-L1 blockade with atezolizumab, 429 patients with advanced mUC were enrolled in a phase 2, single arm clinical trial (IMvigor210; NCT02108652). Objective response rate was assessed per RECIST v1.1 and served as a trial endpoint. […] Assessment of the association of PD-L1 expression on tumor-infiltrating immune cells (IC) on baseline tumors with response (objective response rate) was a co-primary endpoint. PD-L1 IC status was defined by the percentage of PD-L1-positive immune cells in the tumor microenvironment (TME): IC0 (<1%), IC1 (≥1% but <5%) and IC2+(≥5%).

[2] = system: UC, NSCLC, TNBC and PDAC patients; assay: Validation of the 6-gene signature (6TBRS) in atezolizumab clinical trials (IMvigor210, POPLAR); format: in vivo, human; conditions: patients with high expression of the 6-gene signature
From the text: We developed a pan-tissue 6-gene F-TBRS based on the 19-gene Pan-F-TBRS data described above but further prioritizing TGF-β pathway components (TGFB1 and TGFBR2) and targets (CTGF, ADAM19, ACTA2, and COMP). To validate the predictive value of the 6-gene signature, we calculated hazard ratios for prognostic effects (using univariate continuous Cox proportional hazards regression models) and predictive effects, and calculated hazard ratios for predictive effects (using the log-rank test with median cutoff) in atezolizumab clinical trials. […] See, e.g., FIGS. 6B and 6C, which show data from IMvigor210 and the POPLAR study (NCT01903993), respectively.

Question: With “atezolizumab: anti-PD-L1 antibody (Genentech), CAS Registry Number 1422185-06-5, also known as MPDL3280A” as the substance, how does the “primary endpoint: partial response (PR) rate of over 10% (RECIST v1.1)” value ([1]; 1200 mg q3w, previously treated and untreated mUC populations) read?
Answer: met

Question: And the response rate ([1]; Lund genomically unstable (GU) subtype)?
Answer: 47.2%

Question: And the “overall survival (OS) benefit” value ([1]; high PD-L1 IC scores (IC2/3) relative to IC0/1)?
Answer: Improved OS benefit

Question: What about the response ([1]; high TGF-β 2-gene signature (TGFB1, TGFBR2)) of the same substance?
Answer: lack of response

Question: And the “overall survival (OS) benefit” value ([1]; high TMB relative to low TMB, median TMB as cutoff)?
Answer: improved OS benefit

Question: What about the response rate ([1]; other Lund subtypes) of the same substance?
Answer: 17.6%

Question: What about the “overall survival (OS)” value ([1]; patients with both high TMB and high PD-L1 IC scores) of the same substance?
Answer: Improved OS

Question: And the “complete response (CR) rate” value ([1]; tumors with high PD-L1 expression on IC (IC2+) versus other IC levels)?
Answer: significantly higher complete response (CR) rate; also recorded: highest CR rate

Question: And the response/benefit from monotherapy [2]?
Answer: lack of benefit; also recorded: lack of response

Question: And the response/benefit from monotherapy ([2]; listed as atezolimumab)?
Answer: lack of response
